Assay results taken from US6566048B1, “Acetyl-COA-carboxylase from Candida albicans” (Syngenta Limited, priority 1997, dated 2003).
Values after ≈ are worked out from the molar mass of the structure shown.

Assays:
[1] = molecular target: ACCase preparation from S. cerevisiae CLS2-13 (C. albicans ACC1 gene in Yep24) (Candida albicans, UniProt A0A1D8PRR7); assay: In-vitro ACCase assay ([14C] NaHCO3 incorporation); type: biochemical; conditions: 37° C., 5 minutes, read-out: IC50 for Soraphen A (nM) against ACCase preparations
ACCase preparation from S. cerevisiae CLS2-13 (C. albicans ACC1 gene in Yep24), sequence (A0A1D8PRR7 entry or part of it): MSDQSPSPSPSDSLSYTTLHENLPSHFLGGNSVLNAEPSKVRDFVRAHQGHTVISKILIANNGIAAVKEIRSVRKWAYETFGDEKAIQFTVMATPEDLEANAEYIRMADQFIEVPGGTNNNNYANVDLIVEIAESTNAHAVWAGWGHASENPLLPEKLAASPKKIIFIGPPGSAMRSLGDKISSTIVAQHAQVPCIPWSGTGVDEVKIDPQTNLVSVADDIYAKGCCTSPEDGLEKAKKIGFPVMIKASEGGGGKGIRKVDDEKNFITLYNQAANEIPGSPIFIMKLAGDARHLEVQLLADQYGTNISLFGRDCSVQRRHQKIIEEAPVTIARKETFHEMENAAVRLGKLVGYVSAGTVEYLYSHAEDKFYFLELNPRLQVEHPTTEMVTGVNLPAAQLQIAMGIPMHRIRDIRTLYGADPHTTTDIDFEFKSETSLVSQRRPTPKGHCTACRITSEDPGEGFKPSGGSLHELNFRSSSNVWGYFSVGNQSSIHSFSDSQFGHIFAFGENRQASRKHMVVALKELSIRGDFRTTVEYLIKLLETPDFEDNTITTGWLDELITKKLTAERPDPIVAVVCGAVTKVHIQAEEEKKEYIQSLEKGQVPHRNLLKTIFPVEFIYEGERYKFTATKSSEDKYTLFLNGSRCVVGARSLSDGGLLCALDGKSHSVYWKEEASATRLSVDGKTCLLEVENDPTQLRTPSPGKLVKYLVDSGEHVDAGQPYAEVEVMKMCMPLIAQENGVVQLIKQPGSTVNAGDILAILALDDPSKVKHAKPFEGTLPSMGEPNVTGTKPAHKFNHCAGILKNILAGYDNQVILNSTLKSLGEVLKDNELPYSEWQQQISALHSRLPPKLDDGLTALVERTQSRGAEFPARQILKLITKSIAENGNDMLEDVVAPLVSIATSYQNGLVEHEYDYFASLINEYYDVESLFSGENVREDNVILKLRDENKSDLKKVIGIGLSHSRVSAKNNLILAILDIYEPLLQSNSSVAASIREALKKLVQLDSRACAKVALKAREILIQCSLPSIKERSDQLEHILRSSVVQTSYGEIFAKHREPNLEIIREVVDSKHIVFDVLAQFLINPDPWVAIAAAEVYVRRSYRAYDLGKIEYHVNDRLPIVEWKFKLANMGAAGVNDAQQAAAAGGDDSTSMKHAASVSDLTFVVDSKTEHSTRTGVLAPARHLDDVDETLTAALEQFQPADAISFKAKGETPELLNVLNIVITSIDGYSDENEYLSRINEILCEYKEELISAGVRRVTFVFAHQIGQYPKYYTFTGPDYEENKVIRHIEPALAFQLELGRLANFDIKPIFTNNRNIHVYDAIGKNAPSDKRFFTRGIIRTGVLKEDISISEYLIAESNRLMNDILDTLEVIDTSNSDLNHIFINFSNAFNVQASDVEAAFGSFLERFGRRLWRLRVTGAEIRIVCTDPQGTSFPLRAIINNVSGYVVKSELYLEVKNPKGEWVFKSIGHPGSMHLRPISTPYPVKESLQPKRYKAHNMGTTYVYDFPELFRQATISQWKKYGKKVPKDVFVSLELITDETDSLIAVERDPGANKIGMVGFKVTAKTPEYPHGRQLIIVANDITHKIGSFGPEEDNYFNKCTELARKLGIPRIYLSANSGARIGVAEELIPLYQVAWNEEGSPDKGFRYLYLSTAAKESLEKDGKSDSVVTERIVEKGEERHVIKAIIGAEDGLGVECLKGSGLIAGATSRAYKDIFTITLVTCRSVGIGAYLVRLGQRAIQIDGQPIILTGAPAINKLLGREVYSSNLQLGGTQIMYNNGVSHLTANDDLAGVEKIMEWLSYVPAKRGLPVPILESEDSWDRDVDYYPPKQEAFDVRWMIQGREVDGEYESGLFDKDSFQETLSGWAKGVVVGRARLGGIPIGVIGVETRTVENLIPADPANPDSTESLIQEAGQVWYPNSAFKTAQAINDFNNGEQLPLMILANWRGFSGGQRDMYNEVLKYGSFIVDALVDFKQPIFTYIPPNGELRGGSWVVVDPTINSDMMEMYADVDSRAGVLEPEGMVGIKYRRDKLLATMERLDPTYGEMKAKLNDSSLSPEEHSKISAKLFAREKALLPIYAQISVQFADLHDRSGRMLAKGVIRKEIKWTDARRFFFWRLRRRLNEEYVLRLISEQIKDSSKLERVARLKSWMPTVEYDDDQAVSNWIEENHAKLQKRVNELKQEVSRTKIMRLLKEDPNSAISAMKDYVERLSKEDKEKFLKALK
Method: (§1) Cultures of the appropriate yeast strains were grown to the exponential phase of growth (for Saccharomyces and Candida strains respectively). These were then harvested by centrifugation (4400 g, 10 min, 4° C.), washed twice in 700 ml of 50 mM Tris pH7.5 containing 20% w/v gylcerol, resuspending the cell pellet each time. […] The volume of buffer required was dependent on the total packed cell wet weight. (i.e. 1 ml buffer added per 6 gm of packed wet cell pellet).
(§2) The cell paste was homogenised using a pre-cooled Bead-Beater (Biospec Products, Bartlesville, Okla. 74005) with 4×10 second Bursts, allowing 20 second intervals on ice. The preparation was then centrifuged at 31,180 g for 30 minutes. After centrifugation the supernatant was immediately decanted into a container, then aliquoted before snap freezing in liquid nitrogen.

[2] = molecular target: ACCase preparation from S. cerevisiae PNS 117a 5C (Candida albicans, UniProt A0A1D8PRR7); assay: In-vitro ACCase assay ([14C] NaHCO3 incorporation); type: biochemical; conditions: 37° C., 5 minutes, read-out: IC50 for Soraphen A (nM) against ACCase preparations
ACCase preparation from S. cerevisiae PNS 117a 5C, sequence (A0A1D8PRR7 entry or part of it): as above
Method: as §1, §2

[3] = system: S. cerevisiae PNS 120a 6C; assay: In-vitro antifungal activity, broth-dilution liquid MIC; type: cell-based; conditions: Saccharomyces cerevisiae, PNS120A6C, 30° C., 48h, MIC determined visually, read-out: Liquid MIC (μg/ml) for Soraphen A
Method: (§3) Compounds were tested over a concentration range of 1024-0.00098 μg/ml by a broth-dilution method in microtitre plates using doubling dilutions in YPD or YPGal (both containing 500 μg/l d-biotin). Stock solutions of inhibitors were prepared at 51.2 mg/ml in Dimethyl sulphoxide (DMSO) (final assay concentration of DMSO was 2% v/v). Each Yeast culture was added to the well to give a final 10^4 cfu/well. The plates were incubated at 30° C. for 48h and MIC's determined visually.

C. albicans B2630 = assay: as above; type: cell-based; conditions: Candida albicans, 30° C., 48h, MIC determined visually, read-out: Liquid MIC (μg/ml) for Soraphen A
Method: as §3

[4] = system: S. cerevisiae PNS 117b 6A; assay: as above; type: cell-based; conditions: Saccharomyces cerevisiae, PNS117B6A, 30° C., 48h, MIC determined visually, read-out: Liquid MIC (μg/ml) for Soraphen A
Method: as §3

[5] = system: S. cerevisiae PNS 117a 5C; assay: as above; type: cell-based; conditions: Saccharomyces cerevisiae, PNS117A5C, 30° C., 48h, MIC determined visually, read-out: Liquid MIC (μg/ml) for Soraphen A
Method: as §3

[6] = system: S. cerevisiae PNS 120b 1C; assay: as above; type: cell-based; conditions: Saccharomyces cerevisiae, PNS120B1C, 30° C., 48h, MIC determined visually, read-out: Liquid MIC (μg/ml) for Soraphen A
Method: as §3

S. cerevisiae CLS2-13 = assay: as above; type: cell-based; conditions: Saccharomyces cerevisiae, CLS213, 30° C., 48h, MIC determined visually, read-out: Liquid MIC (μg/ml) for Soraphen A
Method: as §3

S. cerevisiae Mey 134 = assay: as above; type: cell-based; conditions: Saccharomyces cerevisiae, MEY134, 30° C., 48h, MIC determined visually, read-out: Liquid MIC (μg/ml) for Soraphen A
Method: as §3

[7] = molecular target: ACCase preparation from S. cerevisiae PNS 117b 6A (Candida albicans, UniProt A0A1D8PRR7); assay: In-vitro ACCase assay ([14C] NaHCO3 incorporation); type: biochemical, C. albicans; conditions: 37° C., 5 minutes, read-out: IC50 for Soraphen A (nM) against ACCase preparations
Method: as §1, §2

C. albicans ACC1 = conditions: isolated fully functional C. albicans ACC1
Method: The assay was conducted in 96 well, flat bottomed polystyrene microtitre plates. All test and control samples were tested in duplicate in this assay.
100 μl of the ACCase enzyme preparation (in 50 mM Tris pH7.5 containing 1 mM EGTA, 1 mM EDTA (disodium salt), 1 mM DTT, 0.25 mM Pefabloc hydrochloride, 1 μM Leupeptin hemisulphate, 1 μM Pepstatin A, 0.5 μM Trypsin inhibitor, and 20% w/v glycerol) was added to each well of the microtitre plate. Each well contained either a 3 μl test sample made up in DMSO or 3 μl DMSO alone (NB. Final DMSO concentrations in the assay were 1.48% v/v). The microtitre plates were placed in a water bath maintained at 37° C. 10 μl of [^14C] NaHCO3 containing 9.25 kBq in 378 mM NaHCO3 was then added to each well. […]
After the addition of the stop reagent the plates were left open in the water bath for a further 30 minutes to allow the ^14CO2 to escape. […] Radioactivity in the samples was then determined by scintillation counting (Wallac WinSpectral 1414, Turku, Finland).
IC50's were calculated from the data using non-linear regression techniques available in the ORIGIN software package (Microcal Software Inc., Massachusetts, USA).

For `CO[C@H]1CCCC[C@@H](c2ccccc2)OC(=O)[C@@H](C)[C@@]2(O)O[C@H]([C@@H](C)[C@H](O)[C@H]2OC)[C@@H](C)/C=C/[C@H]1OC` [Soraphen A], the IC50 [1] was 2.5 nM, the IC50 [2] was 17.5 nM and the MIC [3] was 0.5 µg/mL (≈ 0.96 µM). It also gave an MIC (C. albicans B2630) of 0.003 µg/mL (≈ 0.00576 µM), an MIC [4] of 4 µg/mL (≈ 7.68 µM) and an MIC [5] of 2 µg/mL (≈ 3.84 µM). For the same compound, the MIC [6] was 0.125 µg/mL (≈ 0.24 µM), the MIC (S. cerevisiae CLS2-13) was 2 µg/mL (≈ 3.84 µM) and the MIC (S. cerevisiae Mey 134) was 8 µg/mL (≈ 15.4 µM). For the same compound, the IC50 [7] was 13.1 nM and the “inhibition by SoraphenA” value (C. albicans ACC1) was 100%.
